In the supplement of paper PMC10949913:

Tests used:
Experiment in all cases: area under concentration-response curve (viability) (AUC (a.u.)); higher = less active
Details in all cases: 48 h
[1] = tested on: CU-ACC1
Outline: (§1)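 Library compounds were tested at 11 concentrations against three adrenocortical carcinoma cell lines in 1,536-well plates. CellTiter-Glo luminescence was read after 48 h and normalised per plate to vehicle and empty-well controls. Only inhibitory or non-responding curve classes from fitted concentration-response curves contributed AC50 and area under the curve.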

[2] = tested on: CU-ACC2
Outline: as §1

[3] = tested on: NCI-H295R
Outline: as §1

OC1=CC2=C(C(=O)\C=C(/O2)C3=CC=CC=C3)C(=C1O)O
area under concentration-response curve [1]: 458
area under concentration-response curve [2]: 462
area under concentration-response curve [3]: 489

ClC\1=C(/CN2CCCC2=N)NC(=O)NC1=O
area under concentration-response curve [1]: 505
area under concentration-response curve [2]: 547
area under concentration-response curve [3]: 486

O=P1(N(CCCl)CCCl)NCCCO1 (stereo unspecified)
area under concentration-response curve [1]: 534
area under concentration-response curve [2]: 578
area under concentration-response curve [3]: 526

CCOC(=O)c1c(/C(C#N)=C\N)c2ccc(Cl)c(Cl)c2n1C
area under concentration-response curve [1]: 510
area under concentration-response curve [2]: 478
area under concentration-response curve [3]: 517

FC(F)(F)c1ccc(CNc2ccc(Cc3c[nH]c4ncc(Cl)cc34)cn2)cn1
area under concentration-response curve [1]: 555
area under concentration-response curve [2]: 630
area under concentration-response curve [3]: 582

CN1C(=O)\C(=C/C(=C1/NC2=C(F)C=C(I)C=C2)C(=O)NOCCO)C
area under concentration-response curve [1]: 335
area under concentration-response curve [2]: 519
area under concentration-response curve [3]: 550

C[C@H]1CN(C[C@@H](C)N1)C2=C(F)C3=C(C(=C2F)N)C(=O)\C(=C/N3C4CC4)C(O)=O
area under concentration-response curve [1]: 512
area under concentration-response curve [2]: 503
area under concentration-response curve [3]: 537

CN(C(=O)c1ccc(F)cc1C(F)(F)F)C1CCN(c2nnc(-c3ccnn3C)c3ccccc23)CC1
area under concentration-response curve [1]: 495
area under concentration-response curve [2]: 601
area under concentration-response curve [3]: 566

CC1CCN(c2cc(N3CCN(C)CC3)ccc2NC(=O)c2cc(C#N)c[nH]2)CC1
area under concentration-response curve [1]: 542
area under concentration-response curve [2]: 600
area under concentration-response curve [3]: 544

CCCCCCCCCCCCCCCCCCCCCCO
area under concentration-response curve [1]: 538
area under concentration-response curve [2]: 562
area under concentration-response curve [3]: 525

O=C(O)c1cc(O)c2c(c1)C(=O)c1cccc(O)c1C2=O
area under concentration-response curve [1]: 529
area under concentration-response curve [2]: 622
area under concentration-response curve [3]: 582

NC/1=N/C(=O)N(/C=N1)[C@@H]2O[C@H](CO)[C@@H](O)[C@H]2O
area under concentration-response curve [1]: 469
area under concentration-response curve [2]: 522
area under concentration-response curve [3]: 504

CC\1=C(C(=O)N(\C=C1)C2=CC=C(C=C2)C3=NC=CO3)/C4=CC5=CN=C(N)N=C5C=C4
area under concentration-response curve [1]: 547
area under concentration-response curve [2]: 625
area under concentration-response curve [3]: 574

O=C(Nc1ccccc1)Nc1ccc(-c2ccc(C(=O)[C@@H]3CCC[C@H]3C(=O)O)cc2)cc1
area under concentration-response curve [1]: 481
area under concentration-response curve [2]: 472
area under concentration-response curve [3]: 441

CC(C)[C@H](CO)Nc1nc(Nc2ccc(C(=O)O)c(Cl)c2)c2ncn(C(C)C)c2n1
area under concentration-response curve [1]: 529
area under concentration-response curve [2]: 626
area under concentration-response curve [3]: 594

CN[C@@H](C)C(=O)N[C@H](C(=O)N1CCC[C@H]1c1nc(C(=O)c2ccc(F)cc2)cs1)C1CCCCC1
area under concentration-response curve [1]: 525
area under concentration-response curve [2]: 571
area under concentration-response curve [3]: 546

CC(C)C[C@@H](C(=O)N[C@H](C(=O)OC1CCCC1)c1ccccc1)[C@H](O)C(=O)NO
area under concentration-response curve [1]: 463
area under concentration-response curve [2]: 551
area under concentration-response curve [3]: 539

CC(O)(C[S+](=O)([O-])c1ccc(F)cc1)C(=O)Nc1ccc(C#N)c(C(F)(F)F)c1 (stereo unspecified)
area under concentration-response curve [1]: 454
area under concentration-response curve [2]: 482
area under concentration-response curve [3]: 447

OC(COC1=C2C(=O)\C=C(/OC2=CC=C1)C([O-])=O)COC3=C4C(=O)\C=C(/OC4=CC=C3)C([O-])=O
area under concentration-response curve [1]: 527
area under concentration-response curve [2]: 624
area under concentration-response curve [3]: 555

OC(c1ccc(-c2ccc(CN3CCN(Cc4ccncc4)CC3)cc2)c(F)c1)(C(F)(F)F)C(F)(F)F
area under concentration-response curve [1]: 584
area under concentration-response curve [2]: 638
area under concentration-response curve [3]: 581

CC1(C)O[C@@H]2C[C@H]3[C@@H]4CCC/5=C/C(=O)/C=C\[C@]5(C)[C@@]4(F)[C@@H](O)C[C@]3(C)[C@@]2(O1)C(=O)CO
area under concentration-response curve [1]: 551
area under concentration-response curve [2]: 517
area under concentration-response curve [3]: 548

OCCn1cc(-c2cnc3nnn(Cc4ccc5ncccc5c4)c3n2)cn1
area under concentration-response curve [1]: 497
area under concentration-response curve [2]: 600
area under concentration-response curve [3]: 543

CC(C)(C)[S+](=O)([O-])c1ccc2nccc(Nc3n[nH]c4ccc(F)cc34)c2c1
area under concentration-response curve [1]: 526
area under concentration-response curve [2]: 627
area under concentration-response curve [3]: 561

CO[C@H]1/C=C/O[C@@]2(C)Oc3c(C)c(O)c4c(O)c(c(/C=N/N5CCN(C)CC5)c(O)c4c3C2=O)NC(=O)/C(C)=C\C=C\[C@H](C)[C@H](O)[C@@H](C)[C@@H](O)[C@@H](C)[C@H](OC(C)=O)[C@@H]1C
area under concentration-response curve [1]: 550
area under concentration-response curve [2]: 624
area under concentration-response curve [3]: 560

Cc1nnc(N[S+](=O)([O-])c2ccc(N)cc2)s1
area under concentration-response curve [1]: 496
area under concentration-response curve [2]: 591
area under concentration-response curve [3]: 546

OC(=O)\C1=C\N(C2CC2)C3=CC(=C(F)C=C3C1=O)N4CCNCC4
area under concentration-response curve [1]: 571
area under concentration-response curve [2]: 693
area under concentration-response curve [3]: 561

O=C(Nc1ccc2c(c1)CCN(Cc1ncn[nH]1)C2)c1ccccc1-c1ccc(C(F)(F)F)cc1
area under concentration-response curve [1]: 374
area under concentration-response curve [2]: 505
area under concentration-response curve [3]: 476

N[C@@H](CCC(=O)O)C(=O)N[C@@H](Cc1c[nH]c2ccccc12)C(=O)O
area under concentration-response curve [1]: 493
area under concentration-response curve [2]: 584
area under concentration-response curve [3]: 519

CCCCCN(C)CCC(O)(P(=O)([O-])O)P(=O)(O)O
area under concentration-response curve [1]: 612
area under concentration-response curve [2]: 590
area under concentration-response curve [3]: 611

OC(CCN1CCCCC1)(C2CC\3CC2\C=C3)C4=CC=CC=C4 (stereo unspecified)
area under concentration-response curve [1]: 522
area under concentration-response curve [2]: 582
area under concentration-response curve [3]: 519

C[C@H](O)[C@H]1[C@@H]2[C@H](C)C(=C(\N2C1=O)C(O)=O)/S[C@@H]3CN[C@H](CN[S+](N)([O-])=O)C3
area under concentration-response curve [1]: 516
area under concentration-response curve [2]: 643
area under concentration-response curve [3]: 578

N#Cc1ccc(Cn2cncc2CN2CCN(c3cccc(Cl)c3)C(=O)C2)cc1
area under concentration-response curve [1]: 520
area under concentration-response curve [2]: 578
area under concentration-response curve [3]: 514

CCCC1=N[N](C)C2=C1\N=C(/NC2=O)C3=CC(=CC=C3OCC)[S+]([O-])(=O)N4CCN(C)CC4
area under concentration-response curve [1]: 561
area under concentration-response curve [2]: 610
area under concentration-response curve [3]: 539

CCC1=C(C)CN(C(=O)NCCc2ccc(S(=O)(=O)NC(=O)N[C@H]3CC[C@H](C)CC3)cc2)C1=O
area under concentration-response curve [1]: 508
area under concentration-response curve [2]: 600
area under concentration-response curve [3]: 559

NC/1=N/C(=O)C/2=C(/NCC3CN(CN23)C4=CC=C(C=C4)C(=O)N[C@@H](CCC(O)=O)C(O)=O)N1 (stereo partly specified)
area under concentration-response curve [1]: 475
area under concentration-response curve [2]: 565
area under concentration-response curve [3]: 526

CN(C)NC(=O)CCC(=O)O
area under concentration-response curve [1]: 405
area under concentration-response curve [2]: 410
area under concentration-response curve [3]: 397

C[N]1C2=C(SC(=C2)[S+](C)[O-])C\3=C1C(=O)N(CC4=CC(=CC=C4)N)\N=C3 (stereo unspecified)
area under concentration-response curve [1]: 363
area under concentration-response curve [2]: 511
area under concentration-response curve [3]: 468

C[S+]([O-])(=O)NC1=CC2=C(C=C1OC3=CC=CC=C3)C(=O)\C(=C/O2)NC=O
area under concentration-response curve [1]: 477
area under concentration-response curve [2]: 508
area under concentration-response curve [3]: 487

CN1CCN(C(=O)c2ccc(-c3ccc4c(C=O)c(O)ccc4c3)s2)CC1
area under concentration-response curve [1]: 499
area under concentration-response curve [2]: 612
area under concentration-response curve [3]: 556

CC[S+](=O)([O-])N1CCC([C@@H](C)n2c(C)c(/C(O)=N/Cc3c(OC)cc(C)nc3O)c3ccccc32)CC1
area under concentration-response curve [1]: 509
area under concentration-response curve [2]: 605
area under concentration-response curve [3]: 537

N=C(N)NC(=O)c1nc(Cl)c(N)nc1N
area under concentration-response curve [1]: 455
area under concentration-response curve [2]: 658
area under concentration-response curve [3]: 615

COC1=CC=CC=C1C2=CC=CC(=C2)C/3=C(O)/C4=CC(=C(Cl)C=C4NC3=O)C#N
area under concentration-response curve [1]: 542
area under concentration-response curve [2]: 589
area under concentration-response curve [3]: 562

NC(=O)c1ncn([C@@H]2O[C@H](CO)[C@@H](O)[C@H]2O)c1N
area under concentration-response curve [1]: 418
area under concentration-response curve [2]: 519
area under concentration-response curve [3]: 545

CC(=O)[C@H]1CC[C@H]2[C@@H]3C/C=C4/C[C@@H](O)CC[C@]4(C)[C@H]3CC[C@]12C
area under concentration-response curve [1]: 517
area under concentration-response curve [2]: 627
area under concentration-response curve [3]: 530

CC(=O)SCC(Cc1ccccc1)C(=O)NCC(=O)OCc1ccccc1 (stereo unspecified)
area under concentration-response curve [1]: 556
area under concentration-response curve [2]: 582
area under concentration-response curve [3]: 573

CN1C(=O)/C=C(/NCCN(CCO)CCCC2=CC=C(C=C2)[N+]([O-])=O)N(C)C1=O
area under concentration-response curve [1]: 544
area under concentration-response curve [2]: 643
area under concentration-response curve [3]: 586

Oc1cc2c(cc1O)C1c3ccc(O)c(O)c3OCC1(O)C2 (stereo unspecified)
area under concentration-response curve [1]: 546
area under concentration-response curve [2]: 542
area under concentration-response curve [3]: 527
